# Measurements reported in patent US8461305B2, “L-fucose α1→6 specific lectin” (J-Oil Mills, Inc., priority 2008, dated 2013).
# Assay: frontal affinity chromatography (FAC), association constant to PA sugar chains without L-fucose
# Type: binding
# Conditions: 25 degrees C.
# Method: The following section will describe a method of calculating an association constant by frontal affinity chromatography (FAC). This method is based on the following principle. […] Then, the elution front end (front) is observed immediately. When there is an affinity with lectin, the elution of the sugar chain is delayed.
# The preparation of a lectin column used in the apparatus is performed in the method as described below. 1. Purified lectin is dissolved in 0.1 to 0.2M of NaHCO3 buffer solution (pH 8.3 to 8.5). 2. The lectin is immobilized, via a lectin primary amino group, a carrier such as NHS activated sepharose. 3. Then, the lectin is blocked by Tris buffer solution including primary amine or ethanolamine for example. 4. Lectin-sepharose is suspended in 10 mM Tris buffer, including 0.8% of NaCl (pH 7.4, TBS). Then, lectin immobilized resin is filled in a miniature column (φ2 mm×10 mm, 31.4 μl). 5. The miniature column in which the lectin immobilized resin is filled is protected by a holder and the lectin column is connected to an FAC automatic analysis apparatus (FAC-1, SHIMADZU CORPORATION).
# Then, the elution of the PA sugar chain from the column is detected by a fluorescence detector (excitation wavelength/fluorescence wavelength: 310 nm/380 nm).
# Based on the detection data, by using the elution front end (Vo) of the sugar chain (PA rhamnose) not interacting with lectin as a reference, the delay (V−Vo) of the elution front end (V) of a sugar chain interacting with lectin is calculated as an interaction strength. Then, based on the following FAC criteria expressions, the association constant (Ka) between the sugar chain and lectin is calculated based on V−Vo and Bt. If the interaction strength (V−Vo value) and the association constant are higher, a higher affinity is caused between lectin and an L-fucose α1→6 sugar chain.
# [In the formula, A means substance used for the elution, Ao means the initial concentration of the substance A, B means a immobilized ligand, V means the elution volume, Vo means the elution front end volume of the substance not interacting with the immobilized ligand B at all, Bt means an effective ligand amount, Kd means a dissociation constant (an inverse of the association constant)].
# Pyridylaminated (PA) sugar chains shown in FIG. 1 and FIG. 2 were used to frontal affinity chromatography (FAC) analysis. PA sugars were purchased from TAKARA BIO INC., SEIKAGAKU BIOBUSINESS CORPORATION, and Masuda Chemical Industries co., LTD. PA sugar were also obtained by pyridylaminating, by GlycoTAG®(TAKARA BIO INC.), an unlabeled sugar chain or a sugar chain obtained by subjecting a sugar chain to enzyme digestion for example.
# Lectin was dissolved in 0.2 M NaHCO3 buffer solution (pH 8.3) including 0.5 M NaCl and coupled to the NHS-activated sepharose (GE Healthcare Bioscience) by following the manufacturer's instructions. Then, lectin immobilized sepharose was suspended in 10 mM Tris buffer (pH 7.4, TBS) including […] and the resultant matter was filled in a miniature column (φ2 mm×10 mm, 31.4 μl).
# Frontal affinity chromatography was performed using FAC automatic analysis apparatus (FAC-1, SHIMADZU CORPORATION). In particular, the above-prepared lectin column was inserted to a stainless steel holder and the holder was connected to FAC-1 apparatus. The flow rate and the column temperature were maintained at 0.125 ml/min and 25 degrees C., respectively. After the miniature column was equilibrated by the TBS, an excessive volume (0.5 ml to 4 ml) of a PA sugar chain (3.75 nM or 7.5 nM) was continuously inputted to the column using an automatic sampling apparatus.
# The fluorescent strength of the eluate of the PA sugar (excitation wavelength of 310 nm and fluorescence wavelength of 380 nm) was monitored to measure the interaction strength [a difference of the front end eluate to the standard oligosaccharide (PA rhamnose): V−V0]. […]
substance,measurement,setting,value
"Aspergillus oryzae lectin [AOL, reference compound]",association constant Ka,Sugar chain No. 001,<1000 M⁻¹
same,association constant Ka,Sugar chain No. 002,<1000 M⁻¹
same,association constant Ka,Sugar chain No. 003,<1000 M⁻¹
same,association constant Ka,Sugar chain No. 004,<1000 M⁻¹
same,association constant Ka,Sugar chain No. 005,7300 M⁻¹
same,association constant Ka,Sugar chain No. 006,<1000 M⁻¹
same,association constant Ka,Sugar chain No. 007,<1000 M⁻¹
same,association constant Ka,Sugar chain No. 008,69000 M⁻¹
same,association constant Ka,Sugar chain No. 009,<1000 M⁻¹
same,association constant Ka,Sugar chain No. 010,<1000 M⁻¹
same,association constant Ka,Sugar chain No. 011,<1000 M⁻¹
same,association constant Ka,Sugar chain No. 012,<1000 M⁻¹
same,association constant Ka,Sugar chain No. 013,<1000 M⁻¹
same,association constant Ka,Sugar chain No. 014,<1000 M⁻¹
same,association constant Ka,Sugar chain No. 101,<1000 M⁻¹
same,association constant Ka,Sugar chain No. 103,<1000 M⁻¹
same,association constant Ka,Sugar chain No. 104,<1000 M⁻¹
same,association constant Ka,Sugar chain No. 105,<1000 M⁻¹
same,association constant Ka,Sugar chain No. 107,<1000 M⁻¹
same,association constant Ka,Sugar chain No. 108,<1000 M⁻¹
same,association constant Ka,Sugar chain No. 301,18000 M⁻¹
same,association constant Ka,Sugar chain No. 304,20000 M⁻¹
same,association constant Ka,Sugar chain No. 305,<1000 M⁻¹
same,association constant Ka,Sugar chain No. 307,<1000 M⁻¹
same,association constant Ka,Sugar chain No. 308,20000 M⁻¹
same,association constant Ka,Sugar chain No. 313,<1000 M⁻¹
same,association constant Ka,Sugar chain No. 314,<1000 M⁻¹
same,association constant Ka,Sugar chain No. 323,<1000 M⁻¹
same,association constant Ka,Sugar chain No. 501,<1000 M⁻¹
same,association constant Ka,Sugar chain No. 502,<1000 M⁻¹
same,association constant Ka,Sugar chain No. 503,<1000 M⁻¹
same,association constant Ka,Sugar chain No. 504,<1000 M⁻¹
same,association constant Ka,Sugar chain No. 701,<1000 M⁻¹
same,association constant Ka,Sugar chain No. 702,<1000 M⁻¹
same,association constant Ka,Sugar chain No. 703,<1000 M⁻¹
same,association constant Ka,Sugar chain No. 704,<1000 M⁻¹
same,association constant Ka,Sugar chain No. 705,<1000 M⁻¹
same,association constant Ka,Sugar chain No. 706,<1000 M⁻¹
same,association constant Ka,Sugar chain No. 707,<1000 M⁻¹
same,association constant Ka,Sugar chain No. 708,<1000 M⁻¹
same,association constant Ka,Sugar chain No. 709,<1000 M⁻¹
same,association constant Ka,Sugar chain No. 710,<1000 M⁻¹
same,association constant Ka,Sugar chain No. 711,<1000 M⁻¹
same,association constant Ka,Sugar chain No. 712,<1000 M⁻¹
same,association constant Ka,Sugar chain No. 713,<1000 M⁻¹
same,association constant Ka,Sugar chain No. 715,<1000 M⁻¹
same,association constant Ka,Sugar chain No. 716,<1000 M⁻¹
same,association constant Ka,Sugar chain No. 717,<1000 M⁻¹
same,association constant Ka,Sugar chain No. 724,<1000 M⁻¹
same,association constant Ka,Sugar chain No. 725,<1000 M⁻¹
same,association constant Ka,Sugar chain No. 728 (as listed in Table 7),<1000 M⁻¹
same,association constant Ka,Sugar chain No. 732,<1000 M⁻¹
same,association constant Ka,Sugar chain No. 733,<1000 M⁻¹
same,association constant Ka,Sugar chain No. 734,<1000 M⁻¹
same,association constant Ka,Sugar chain No. 735,<1000 M⁻¹
same,association constant Ka,Sugar chain No. 736,<1000 M⁻¹
same,association constant Ka,Sugar chain No. 737,<1000 M⁻¹
same,association constant Ka,Sugar chain No. 738,<1000 M⁻¹
same,association constant Ka,Sugar chain No. 901,<1000 M⁻¹
same,association constant Ka,Sugar chain No. 902,<1000 M⁻¹
same,association constant Ka,Sugar chain No. 903,<1000 M⁻¹
same,association constant Ka,Sugar chain No. 905,<1000 M⁻¹
same,association constant Ka,Sugar chain No. 906,<1000 M⁻¹
same,association constant Ka,Sugar chain No. 907,<1000 M⁻¹
